Measured values from article PMC3125419 (Journal of acquired immune deficiency syndromes (1999), 2011).
Where two headings read alike, the source gives them in different places. Marks after values point to notes of the source that are not given here. One block for each molecule: values may come before it.

Key:
[1] = One-compartment model with first-order absorption and elimination; format: in vivo, human; conditions: median
[2] = clinical; conditions: female, human, in vivo
[3] = female, human, in vivo
[4] = system: HIV-1 RNA; test: Plasma viral load and infant HIV infection status; format: in vivo, human; conditions: for Undetectable (<20, 50, 75 or 400) plasma HIV-1 RNA, N (%): atazanavir/ritonavir-based regimen
[5] = human, in vivo
[6] = clinical; conditions: female, human, in vivo; remark: listed apart in the source
[7] = cited from earlier work
[8] = with tenofovir, median (range), N=19

SMILES: COC(=O)N[C@H](C(=O)N[C@@H](Cc1ccccc1)[C@@H](O)CN(Cc1ccc(-c2ccccn2)cc1)NC(=O)[C@@H](NC(=O)OC)C(C)(C)C)C(C)(C)C [Atazanavir]
CL/F, one-compartment ([1]; with tenofovir, postpartum): 7.2 L/h
CL/F, one-compartment ([1]; with tenofovir, second trimester): 14.5 L/h
CL/F, one-compartment ([1]; with tenofovir, third trimester): 9.9 L/h
CL/F, one-compartment ([1]; without tenofovir, postpartum): 4.9 L/h
CL/F, one-compartment ([1]; without tenofovir, second trimester): 3.1 L/h
CL/F, one-compartment ([1]; without tenofovir, third trimester): 6.7 L/h
Kp [2]: 0.18
concentration in cord blood [2]: 0.16 (<0.047 – 0.42) mcg/mL
concentration in maternal delivery plasma [2]: 0.83 (0.11 - 2.36) mcg/mL
ratio of concentration in cord blood to that in maternal delivery plasma [2]: 0.18 (0.04 – 0.45)
Grade 3 or 4 hyperbilirubinemia [3]: 14 subjects
Grade 3 or 4 toxicities [3]: 16 subjects
infants HIV-uninfected ([4]; 38 infants, status indeterminate for one): Thirty-seven
Undetectable (<20, 50, 75 or 400) plasma HIV-1 RNA, N (%) ([4]; delivery, with tenofovir): 17 (89%) ^‡
Undetectable (<20, 50, 75 or 400) plasma HIV-1 RNA, N (%) ([4]; delivery, with tenofovir, listed as atazanavir): 17 of 19
Undetectable (<20, 50, 75 or 400) plasma HIV-1 RNA, N (%) ([4]; delivery, without tenofovir): 11 (69%) ^†
Undetectable (<20, 50, 75 or 400) plasma HIV-1 RNA, N (%) ([4]; delivery, without tenofovir, listed as atazanavir): 11 of 16
Undetectable (<20, 50, 75 or 400) plasma HIV-1 RNA, N (%) ([4]; postpartum, with tenofovir): 14 (100%) ^++
Undetectable (<20, 50, 75 or 400) plasma HIV-1 RNA, N (%) ([4]; postpartum, without tenofovir): 8 (73%) ^+
Undetectable (<20, 50, 75 or 400) plasma HIV-1 RNA, N (%) ([4]; third trimester, with tenofovir): 15 (79%) ^§
Undetectable (<20, 50, 75 or 400) plasma HIV-1 RNA, N (%) ([4]; third trimester, without tenofovir): 13 (72%) ^**
Postpartum plasma HIV-1 RNA ([4]; with tenofovir, median (range), N=14): <75 (<20 - <400) copies/mL
Delivery plasma HIV-1 RNA [4, 8]: <75 (<20 – 116) copies/mL
third trimester plasma HIV-1 RNA [4, 8]: <50 (<20 – 1630) copies/mL
Delivery plasma HIV-1 RNA ([4]; without tenofovir, median (range), N=16): <62.5 (<50 - 29933) copies/mL
third trimester plasma HIV-1 RNA ([4]; without tenofovir, median (range), N=18): <62.5 (<50 - 19314) copies/mL
additional reduction of AUC0-24 and Cmin when coadministered with tenofovir ([5]; female): 25%
Tmax [6]: 4 h
estimated 10th percentile AUC0-24 ([7]; non-pregnant adult populations, standard dose): 29.4 µg·h/mL
mean AUC ([7]; non-pregnant historical controls taking the standard dose): 57 µg·h/mL
geometric mean AUC ([7]; nonpregnant HIV infected adults): 46.1 µg·h/mL
AUC ([7]; postpartum, ref Eley, 10): 57.2 µg·h/mL
mean AUC ([7]; postpartum, ref Ripamonti, 9): 30.5 µg·h/mL
geometric mean AUC ([7]; third trimester, 12 women, ref Eley et al, 10): 26.6 µg·h/mL

Tmax ([5]; female): 4 (2 – 4) hr
Vd/F ([5]; female): 34.2 L
AUC0-24, C0, Cmax and C24 during the 3rd trimester compared to postpartum [5]: decreased
CL/F [5]: 6.8 L/h
Cl/F during the 3rd trimester compared to postpartum [5]: increased
Tmax [6]: 6 h
SMILES: CC(C)c1nc(CN(C)C(=O)N[C@H](C(=O)N[C@@H](Cc2ccccc2)C[C@H](O)[C@H](Cc2ccccc2)NC(=O)OCc2cncs2)C(C)C)cs1 [Ritonavir]

SMILES: CC(C)(C)NC(=O)[C@@H]1CN(Cc2cccnc2)CCN1C[C@@H](O)C[C@@H](Cc1ccccc1)C(=O)N[C@H]1c2ccccc2C[C@H]1O [indinavir]
AUC lower during pregnancy compared to postpartum ([7]; unboosted): 68%

SMILES: Cc1cccc(C)c1OCC(=O)N[C@@H](Cc1ccccc1)[C@@H](O)C[C@H](Cc1ccccc1)NC(=O)[C@H](C(C)C)N1CCCNC1=O [lopinavir]
AUC reduction during the third trimester ([7]; capsules at standard dosing (lopinavir 400 mg/ritonavir 100 mg twice daily)): 50%

SMILES: CC(C)(C)NC(=O)[C@@H]1C[C@@H]2CCCC[C@@H]2CN1C[C@@H](O)[C@H](Cc1ccccc1)NC(=O)[C@H](CC(N)=O)NC(=O)c1ccc2ccccc2n1 [saquinavir]
pregnant subjects achieving adequate trough concentrations ([7]; saquinavir 1200 mg/ritonavir 100 mg once daily): 93%
